Source: patent publication US8501792B2, “Treating cancer with desthiazolyl ritonavir” (priority 2008, dated 2013)

System: Purified mammalian Hsp90
Assay: Hsp90 binding on CM-5 BIAcore chip (surface plasmon resonance)
Source text: Inhibition of Hsp90 can be evaluated by surface plasmon resonance studies of a compound of formula I, using a CM-5 Biacore chip on which Hsp90 (Stressgen, Ann Arbor) has been immobilized. This method can also be used to evaluate the chaperoning activity of a compound of formula I by evaluation of luciferase refolding. See Examples 4 and 9.
Purified mammalian Hsp90 was attached to a CM-5 BIAcore chip through an NHS ester linkage. After attachment of the Hsp90 and blocking the chip with BSA, M1 drug or a 17-AAG control was circulated through a microfluidic circuit and change in refractive index was measured by quantification of the RU value for each drug concentration. In the case of the 17-AAG control the binding was saturable and based on the kon and koff measurements, the KD was estimated to be in the 1 microM range. […] This means that there are significant differences in the binding of M-1 and may indicate alteration of the Hsp90 structure.

C=CCNC1=C2C[C@@H](C)C[C@H](OC)[C@H](O)[C@@H](C)/C=C(\C)[C@H](OC(N)=O)[C@@H](OC)/C=C\C=C(/C)C(=O)NC(=CC1=O)C2=O [17-AAG]
binding to Hsp90, saturability (RU value versus drug concentration, FIG. 11): saturable
Kd (estimated from kon and koff measurements): ~1 µM
